Source: patent US20060079453A1, “Hla binding peptides and their uses” (priority 2002, published 2006)
Read-outs that look alike come from different tables or passages of the source. No end group written: not given here.

Tests used:
Assay in all cases: biochemical
Assay type in all cases: binding
HLA-A*0101 = HLA-A*0101 (Homo sapiens, UniProt P04439, A114D/A174V/A182V/D101N/D185E/E176A/E190D/L180R/Q94H/R68K/S129P/T187R/V100A/V91M/W191G)
HLA-A*3002 = HLA-A*3002 (Homo sapiens, UniProt P04439, D101N/D140H/D185E/E176R/F33S/G80R/H175R/K168Q/Q94H/R138E/R41S/V100E)
HLA-B*1801 = HLA-B*1801 (Homo sapiens, UniProt P01889, A329T/A93T/A95T/C349S/D201E/D54G/D98Y/E176V/E187T/E204Q/E69T/K202T/Q94N/R155S/R180L/S121R/V306I/Y140S/Y195H/Y33H/Y91S)
HLA-B*4001 = HLA-B*4001 (Homo sapiens, UniProt P01889, A65T/A93T/A95T/D138N/D98Y/E176V/E69K/N87E/Q56L/Q94N/R180L/S121R/S35A/S48T/T167S/V36M/W171L/Y33H/Y91S)
HLA-B*4002 = HLA-B*4002 (Homo sapiens, UniProt P01889, A65T/A93T/A95T/D138N/D201E/D98Y/E176V/E204Q/E69K/K202T/N87E/Q56L/Q94N/R180L/S48T/Y33H/Y91S)
HLA-B*4402 = HLA-B*4402 (Homo sapiens, UniProt P01889, A223V/A65T/A93T/A95T/D201E/D98Y/E176V/E187L/E204Q/E69K/G107R/H137Y/K202T/L105A/L119I/N104T/N87E/Q56L/Q94N/R106L/R155S/R180D/S101N/S121R/S35A/S48T/T118I/V36M/W191S/Y140D/Y91S)
HLA-B*4403 = HLA-B*4403 (Homo sapiens, UniProt P01889, A223V/A65T/A93T/A95T/D201E/D98Y/E176V/E187L/E204Q/E69K/G107R/H137Y/K202T/L105A/L119I/N104T/N87E/Q56L/Q94N/R106L/R155S/R180L/S101N/S121R/S35A/S48T/T118I/V36M/W191S/Y140D/Y91S)
HLA-B*4501 = HLA-B*4501 (Homo sapiens, UniProt P01889, A329T/A65T/A93T/A95T/C349S/D138N/D201E/D98Y/E176V/E187L/E204Q/E69K/H137Y/K202T/L119W/N87E/Q56L/Q94N/R155S/R180D/S121R/S35A/S48T/V127L/V306I/V36M/W191S/Y140L/Y33H/Y91S)
[1] = Binding affinity to A*0101 (expressed as an IC50)
[2] = Binding affinity to A*3002 (expressed as an IC50)

**Q.** With ITEYRHYQY as the compound, how does the IC50 (HLA-A*0101; [1]) read?
**A.** 0.09 µM

**Q.** How did the IC50 (HLA-A*0101; [1]) turn out when TLEGPGPGGLY was run?
**A.** 0.011 µM

**Q.** And the IC50 (HLA-A*3002; [2])?
**A.** 0.04 µM

**Q.** Which results are given for AENLWVTVM?
**A.** IC50 (HLA-B*1801): 0.508 µM; IC50 (HLA-B*4001): 0.013 µM; IC50 (HLA-B*4002): 0.0061 µM; IC50 (HLA-B*4402): 0.195 µM; IC50 (HLA-B*4403): 0.035 µM; IC50 (HLA-B*4501): 0.05 µM

**Q.** Which IC50 (HLA-B*4001; B*4001) does the source give for AENLYVTVF here?
**A.** 0.017 µM

**Q.** And the IC50 (HLA-B*4002; B*4002)?
**A.** 0.0031 µM

**Q.** And the IC50 (HLA-B*4402; B*4402)?
**A.** 0.039 µM

**Q.** What about the IC50 (HLA-B*4403; B*4403) of the same compound?
**A.** 0.047 µM

**Q.** What about the IC50 (HLA-B*4501; B*4501) of the same compound?
**A.** 0.069 µM

**Q.** What does the source list for PENLWVTVY?
**A.** IC50 (HLA-B*1801): 0.19 µM; IC50 (HLA-B*4001): > 72.7 µM; IC50 (HLA-B*4002): > 155 µM; IC50 (HLA-B*4402): > 167 µM; IC50 (HLA-B*4403): > 425 µM; IC50 (HLA-B*4501): > 49 µM

**Q.** MDIDPYKEF was tested. Which IC50 (HLA-B*1801; B*1801) did it give?
**A.** 169 µM

**Q.** What about the IC50 (HLA-B*4001; B*4001) of the same compound?
**A.** 3.7 µM

**Q.** And the IC50 (HLA-B*4002; B*4002)?
**A.** 0.382 µM

**Q.** What about the IC50 (HLA-B*4402; B*4402) of the same compound?
**A.** 21.7 µM

**Q.** And the IC50 (HLA-B*4403; B*4403)?
**A.** 1.95 µM

**Q.** What about the IC50 (HLA-B*4501; B*4501) of the same compound?
**A.** 2.61 µM

**Q.** For LDPYARVAI, which IC50 (HLA-B*1801) is on record?
**A.** > 24.4 µM

**Q.** And the IC50 (HLA-B*4001)?
**A.** > 88.9 µM

**Q.** And the IC50 (HLA-B*4002)?
**A.** 0.372 µM

**Q.** And the IC50 (HLA-B*4402)?
**A.** > 41.6 µM

**Q.** What about the IC50 (HLA-B*4403) of the same compound?
**A.** > 39.8 µM

**Q.** And the IC50 (HLA-B*4501)?
**A.** > 49 µM

**Q.** How did the IC50 (HLA-B*1801; B*1801) turn out when LDKGIKPY was run?
**A.** > 100 µM

**Q.** And the IC50 (HLA-B*4001; B*4001)?
**A.** 17.9 µM

**Q.** What about the IC50 (HLA-B*4002; B*4002) of the same compound?
**A.** 0.468 µM

**Q.** And the IC50 (HLA-B*4402; B*4402)?
**A.** > 43.2 µM

**Q.** And the IC50 (HLA-B*4403; B*4403)?
**A.** 19.3 µM

**Q.** And the IC50 (HLA-B*4501; B*4501)?
**A.** 23.6 µM

**Q.** Which IC50 (HLA-A*0101; [1]) does the source give for `C[C@H](NC(=O)[C@H](Cc1c[nH]c2ccccc12)NC(=O)[C@H](Cc1ccc(O)cc1)NC(=O)[C@H](CC(=O)O)NC(=O)[C@H](Cc1ccc(O)cc1)NC(=O)[C@@H](NC(=O)CN)[C@@H](C)O)C(=O)NCC(=O)N[C@@H](Cc1ccc(O)cc1)C(=O)O` here?
**A.** 0.141 µM

**Q.** How did the IC50 (HLA-A*0101; read-out: Binding affinity to A*0101 (expressed as an IC50)) turn out when SYQHFRIKLLL was run?
**A.** > 83.3 µM

**Q.** GEFGGYGSV was tested. Which IC50 (HLA-B*4002; B*4002) did it give?
**A.** 0.0064 µM

**Q.** What about the IC50 (HLA-B*4402; B*4402) of the same compound?
**A.** 2.34 µM

**Q.** And the IC50 (HLA-B*4403; B*4403)?
**A.** 0.534 µM

**Q.** And the IC50 (HLA-B*4501; B*4501)?
**A.** 0.04 µM

**Q.** NLALLYGEY was tested. Which IC50 (HLA-A*0101; [1]) did it give?
**A.** 0.275 µM

**Q.** And the IC50 (HLA-A*3002; [2])?
**A.** 0.102 µM

**Q.** `CC[C@H](C)[C@H](NC(=O)[C@H](CO)NC(=O)[C@H](Cc1c[nH]cn1)NC(=O)[C@@H](NC(=O)[C@H](CO)NC(=O)[C@@H](N)CC(C)C)C(C)C)C(=O)N[C@@H](CCC(N)=O)C(=O)N[C@@H](CC(N)=O)C(=O)N[C@@H](CC(=O)O)C(=O)N[C@@H](Cc1ccc(O)cc1)C(=O)O` was tested. Which IC50 (HLA-A*0101; [1]) did it give?
**A.** 0.279 µM

**Q.** Which IC50 (HLA-B*1801; B*1801) does the source give for SEAIYTFQF here?
**A.** 0.0057 µM

**Q.** What about the IC50 (HLA-B*4001; B*4001) of the same compound?
**A.** 0.967 µM

**Q.** What about the IC50 (HLA-B*4402; B*4402) of the same compound?
**A.** 0.0048 µM

**Q.** What about the IC50 (HLA-B*4403; B*4403) of the same compound?
**A.** 0.02 µM

**Q.** What about the IC50 (HLA-B*4501; B*4501) of the same compound?
**A.** 0.293 µM

**Q.** For ATELHPEYY, which IC50 (HLA-A*0101; [1]) is on record?
**A.** 0.043 µM

**Q.** What about the IC50 (HLA-A*3002) of the same compound?
**A.** 1.73 µM
